Patent US20260372303A1, “5-Fluoro-4-Imino-3-Methyl-1-Tosyl-3, 4-Dihydropyrimidin-2(1H) -One for Fungicide-Resistant Fungus” (priority 2022, published 2026)

Columns and labels:
Assay type in all cases: in vivo
[1] = tested on: Zymoseptoria tritici strain Zt 99; experiment: In planta preventive efficacy on wheat cv. Alixan against Zymoseptoria tritici strain Zt 99; details: for Disease Severity Intensity: % of length of 2nd leaf blade, preventive 24 h; for AUDPC: control 1352.9
Experimental: (§1) A series of experiments were conducted to evaluate the efficacy of flumetylsulforim (ADF-16) for treating different strains of Zymoseptoria tritici in comparison with commercially available fungicides. Table 1 describes the Z. tritici strains used in this study and Table 2 describes the fungicides used in this study.
(§2) Winter wheat plants cv. Alixan (Limagrain) at the BBCH 12 growth stage were treated preventively with sterile distilled water (control), ADF-16, penthiopyrad, metconazole or tebuconazole at the rates described in Table 2 with a hand sprayer at 2 bars.
(§3) After treatment, wheat plants were left to dry at room temperature for 1 hour and then placed in a climatic chamber: temperature of 24 °C day/18 °C night-photoperiod of 16 h light/8 h dark and a relative humidity of 65%.
(§4) Untreated or treated whole wheat plants were inoculated 24-hours post-treatment with a calibrated pycnospore suspension of Z. tritici strains Zt StA, Zt 61, Zt 99, Zt 20, Zt 19-52, and Zt 38-02. Three replicates (pots) of 6 wheat plants each were used for each condition tested.
(§5) After inoculation, pots were transferred in a climatic chamber: temperature of 20 °C day/17 °C night—photoperiod of 16 h light/8 h dark and controlled relative humidity.
(§6) Disease assessments were carried out at 15 days post inoculation (dpi), 21 dpi and 28 dpi by measuring the length of the necrosis on the second leaf blade. The intensity of infection was then determined as a percentage of the total length of 2nd leaf blade.
(§7) The fungicide efficacies were determined from the Area Under the Disease Progress Curve (AUDPC) values and expressed as a percentage of the untreated control.
(§8) The AUDPC is a quantitative measure of disease intensity over time. The most commonly used method for estimating the AUDPC, the trapezoidal method, is performed by multiplying the average disease intensity between each pair of adjacent timepoints by the corresponding time interval and this for each time interval. The AUDPC is determined with the following formula by adding all of the trapezoids:
(§9) [formula] • yi=disease severity at the ith observation • ti=time (days) at the ith observation • N=total number of observations

[2] = tested on: Zymoseptoria tritici strain Zt 20; experiment: In planta preventive efficacy on wheat cv. Alixan against Zymoseptoria tritici strain Zt 20; details: % of length of 2nd leaf blade, preventive 24 h
Experimental: as §1, §2, §3, §4, §5, §6, §7, §8, §9

[3] = tested on: Zymoseptoria tritici strain Zt StA; experiment: In planta preventive efficacy on wheat cv. Alixan against Zymoseptoria tritici strain Zt StA (control strain, sensitive); details: for Disease Severity Intensity: % of length of 2nd leaf blade, preventive 24 h; for AUDPC: control 781.6
Experimental: as §1, §2, §3, §4, §5, §6, §7, §8, §9

[4] = tested on: Zymoseptoria tritici strain Zt 19-52; experiment: In planta preventive efficacy on wheat cv. Alixan against Zymoseptoria tritici strain Zt 19-52; details: % of length of 2nd leaf blade, preventive 24 h
Experimental: as §1, §2, §3, §4, §5, §6, §7, §8, §9

[5] = tested on: Zymoseptoria tritici strain Zt 38-02; experiment: In planta preventive efficacy on wheat cv. Alixan against Zymoseptoria tritici strain Zt 38-02; details: for Disease Severity Intensity: % of length of 2nd leaf blade, preventive 24 h; for AUDPC: control 1261.4
Experimental: as §1, §2, §3, §4, §5, §6, §7, §8, §9

[6] = tested on: Zymoseptoria tritici strain Zt 61; experiment: In planta preventive efficacy on wheat cv. Alixan against Zymoseptoria tritici strain Zt 61; design: fungicide efficacy: concentration or dose not given beside the values; details: for Disease Severity Intensity: % of length of 2nd leaf blade, preventive 24 h; for AUDPC: control 1194.9
Experimental: as §1, §2, §3, §4, §5, §6, §7, §8, §9

[7] = rate N (g a.i./ha): ADF-16 100, penthiopyrad 200, metconazole 90, tebuconazole 250
[8] = rate N/2.5 (g a.i./ha): ADF-16 40, penthiopyrad 80, metconazole 36, tebuconazole 100
[9] = 15 dpi, rate N (g a.i./ha): ADF-16 100, penthiopyrad 200, metconazole 90, tebuconazole 250, control also no disease
[10] = 15 dpi, rate N/2.5 (g a.i./ha): ADF-16 40, penthiopyrad 80, metconazole 36, tebuconazole 100, control also no disease

CC1(C)CCC(Cc2ccc(Cl)cc2)C1(O)Cn1cncn1 (centres unmarked) [Metconazole]
Disease Severity Intensity ([1]; 15 dpi, rate N (g a.i./ha): ADF-16 100, penthiopyrad 200, metconazole 90, tebuconazole 250, control 47.9): 0.0 +/− 0.0d % | Disease Severity Intensity ([1]; 15 dpi, rate N/2.5 (g a.i./ha): ADF-16 40, penthiopyrad 80, metconazole 36, tebuconazole 100, control 47.9): 1.3 +/− 1.2d % | Disease Severity Intensity ([1]; 21 dpi, rate N (g a.i./ha): ADF-16 100, penthiopyrad 200, metconazole 90, tebuconazole 250, control 81.0): 18.2 +/− 2.6d % | Disease Severity Intensity ([1]; 21 dpi, rate N/2.5 (g a.i./ha): ADF-16 40, penthiopyrad 80, metconazole 36, tebuconazole 100, control 81.0): 58.7 +/− 2.8c % | Disease Severity Intensity ([1]; 28 dpi, rate N (g a.i./ha): ADF-16 100, penthiopyrad 200, metconazole 90, tebuconazole 250, control 92.2): 86.3 +/− 2.4ab % | Disease Severity Intensity ([1]; 28 dpi, rate N/2.5 (g a.i./ha): ADF-16 40, penthiopyrad 80, metconazole 36, tebuconazole 100, control 92.2): 84.6 +/− 4.3b % | Efficacy (from AUDPC, percentage of the untreated control) [1, 7]: 69.0% | AUDPC [1, 7]: 419.9 +/− 29.6e | Efficacy (from AUDPC, percentage of the untreated control) [1, 8]: 48.9% | AUDPC [1, 8]: 691.1 ± 28.1 days | Disease Severity Intensity [2, 9]: No disease | Disease Severity Intensity [2, 10]: No disease | Disease Severity Intensity ([2]; 21 dpi, rate N (g a.i./ha): ADF-16 100, penthiopyrad 200, metconazole 90, tebuconazole 250, control 77.2): 1.9 +/− 0.7cd % | Disease Severity Intensity ([2]; 21 dpi, rate N/2.5 (g a.i./ha): ADF-16 40, penthiopyrad 80, metconazole 36, tebuconazole 100, control 77.2): 15.1 +/− 2.8b % | Disease Severity Intensity ([2]; 28 dpi, rate N (g a.i./ha): ADF-16 100, penthiopyrad 200, metconazole 90, tebuconazole 250, control 95.5): 33.0 +/− 3.6d % | Disease Severity Intensity ([2]; 28 dpi, rate N/2.5 (g a.i./ha): ADF-16 40, penthiopyrad 80, metconazole 36, tebuconazole 100, control 95.5): 78.0 +/− 5.0b % | Disease Severity Intensity [3, 9]: No disease | Disease Severity Intensity [3, 10]: No disease | Disease Severity Intensity ([3]; 21 dpi, rate N (g a.i./ha): ADF-16 100, penthiopyrad 200, metconazole 90, tebuconazole 250, control 36.5): 0.0 +/− 0.0b % | Disease Severity Intensity ([3]; 21 dpi, rate N/2.5 (g a.i./ha): ADF-16 40, penthiopyrad 80, metconazole 36, tebuconazole 100, control 36.5): 0.0 +/− 0.0b % | Disease Severity Intensity ([3]; 28 dpi, rate N (g a.i./ha): ADF-16 100, penthiopyrad 200, metconazole 90, tebuconazole 250, control 77.4): 0.0 +/− 0.0b % | Disease Severity Intensity ([3]; 28 dpi, rate N/2.5 (g a.i./ha): ADF-16 40, penthiopyrad 80, metconazole 36, tebuconazole 100, control 77.4): 0.0 +/− 0.0b % | Efficacy (from AUDPC, percentage of the untreated control) [3, 7]: 100% | AUDPC [3, 7]: 0.0 +/− 0.0b | Efficacy (from AUDPC, percentage of the untreated control) [3, 8]: 100% | AUDPC [3, 8]: 0.0 +/− 0.0b | Disease Severity Intensity ([4]; 15 dpi, rate N (g a.i./ha): ADF-16 100, penthiopyrad 200, metconazole 90, tebuconazole 250, control 22.0): 0.0 +/− 0.0b % | Disease Severity Intensity ([4]; 15 dpi, rate N/2.5 (g a.i./ha): ADF-16 40, penthiopyrad 80, metconazole 36, tebuconazole 100, control 22.0): 0.0 +/− 0.0b % | Disease Severity Intensity ([4]; 21 dpi, rate N (g a.i./ha): ADF-16 100, penthiopyrad 200, metconazole 90, tebuconazole 250, control 81.7): 0.3 +/− 0.2c % | Disease Severity Intensity ([4]; 21 dpi, rate N/2.5 (g a.i./ha): ADF-16 40, penthiopyrad 80, metconazole 36, tebuconazole 100, control 81.7): 2.1 +/− 0.8b % | Disease Severity Intensity ([4]; 28 dpi, rate N (g a.i./ha): ADF-16 100, penthiopyrad 200, metconazole 90, tebuconazole 250, control 91.0): 12.0 +/− 1.9c % | Disease Severity Intensity ([4]; 28 dpi, rate N/2.5 (g a.i./ha): ADF-16 40, penthiopyrad 80, metconazole 36, tebuconazole 100, control 91.0): 22.4 +/− 2.3b % | Disease Severity Intensity ([5]; 15 dpi, rate N (g a.i./ha): ADF-16 100, penthiopyrad 200, metconazole 90, tebuconazole 250, control 36.0): 0.0 +/− 0.0b % | Disease Severity Intensity ([5]; 15 dpi, rate N/2.5 (g a.i./ha): ADF-16 40, penthiopyrad 80, metconazole 36, tebuconazole 100, control 36.0): 1.7 +/− 0.9b % | Disease Severity Intensity ([5]; 21 dpi, rate N (g a.i./ha): ADF-16 100, penthiopyrad 200, metconazole 90, tebuconazole 250, control 84.3): 25.6 +/− 3.9d % | Disease Severity Intensity ([5]; 21 dpi, rate N/2.5 (g a.i./ha): ADF-16 40, penthiopyrad 80, metconazole 36, tebuconazole 100, control 84.3): 61.8 +/− 2.5bc % | Disease Severity Intensity ([5]; 28 dpi, rate N (g a.i./ha): ADF-16 100, penthiopyrad 200, metconazole 90, tebuconazole 250, control 95.7): 82.4 +/− 3.4c % | Disease Severity Intensity ([5]; 28 dpi, rate N/2.5 (g a.i./ha): ADF-16 40, penthiopyrad 80, metconazole 36, tebuconazole 100, control 95.7): 92.1 +/− 1.2b % | Efficacy (from AUDPC, percentage of the untreated control) [5, 7]: 64.0% | AUDPC [5, 7]: 454.7 +/− 29.0c | Efficacy (from AUDPC, percentage of the untreated control) [5, 8]: 41.1% | AUDPC [5, 8]: 743.0 +/− 14.9b | Disease Severity Intensity [6, 9]: No disease | Disease Severity Intensity [6, 10]: No disease | Disease Severity Intensity ([6]; 21 dpi, rate N/2.5 (g a.i./ha): ADF-16 40, penthiopyrad 80, metconazole 36, tebuconazole 100, control 63.3): 10.1 +/− 1.6c % | Disease Severity Intensity ([6]; 28 dpi, rate N (g a.i./ha): ADF-16 100, penthiopyrad 200, metconazole 90, tebuconazole 250, control 88.1): 35.1 +/− 3.8d % | Disease Severity Intensity ([6]; 28 dpi, rate N/2.5 (g a.i./ha): ADF-16 40, penthiopyrad 80, metconazole 36, tebuconazole 100, control 88.1): 65.6 +/− 4.2bc % | fungicide efficacy ([6]; higher application rates (N)): ≥ 85% | fungicide efficacy ([6]; lower application rates (N/2.5)): ≤ 70% | Efficacy (from AUDPC, percentage of the untreated control) [6, 7]: 85.9% | AUDPC [6, 7]: 168.8 +/− 45.4cd | Efficacy (from AUDPC, percentage of the untreated control) [6, 8]: 68.9% | AUDPC [6, 8]: 371.8 +/− 48.7b
